Experimental findings from patent US4210660A, “Benzamide derivatives” (Yamanouchi Pharmaceutical Co., Ltd., priority 1978, dated 1980) are described below.

This assay relates to apomorphine-induced stereotyped behavior. As to the kind of experiment: Activity in reducing apomorphine-induced stereotyped behavior (method of Janssen et al.). It counts as in vivo, rats (male, Wistar). The following applies: sc. The text has this:
In the following Experiment I, the compounds of this invention were compared with chlorpromazine which is a typical antipsychotic and other known structurally similar compounds in their activity in reducing apomorphine-induced stereotyped behavior.

Where [1] appears, read: test sample subcutaneous to rat, after 30 minutes 1.25 mg/kg apomorphine intravenously, observed 5, 10 and 20 minutes later, read-out: ED50.

Where two headings read alike, the source gives them in different places.

`CNc1cc(OC)c(C(=O)NC2CCN(Cc3ccccc3)C2C)cc1Cl` (stereo not shown) [Example 3, N-(1-benzyl-2-methylpyrrolidin-3-yl)-5-chloro-2-methoxy-4-methylaminobenzamide]: the ED50 (usually the dose that gives a 50% effect, or the effect in half of the subjects) under setting [1] is 0.01 mg/kg.
Regarding `CN(C)CCCN1c2ccccc2Sc2ccc(Cl)cc21` [Chlorpromazine], under “Rattus norvegicus”, it took a dose of 2.5 mg/kg to reach the 50% effect level (ED50).
On to `CCN1CCCC1CNC(=O)c1cc(S(=O)(=O)CC)ccc1OC` (stereo not shown) [Sultopiride], for which, under setting [1], the ED50 was 18 mg/kg.
Still for that read-out and setting: with `CCN1CCCC1CNC(=O)c1cc(S(N)(=O)=O)ccc1OC` (stereo not shown) [Sulpiride] the figure was above 100 mg/kg.
